Measurements: PubChem BioAssay (NCI)
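Grown in 96-well plates, cells were treated for 48 hours with each compound at five concentrations. Insufficient inhibition: endpoint recorded as highest concentration tested. GI50 is the concentration that inhibits growth by half. Definition used: TGI = concentration required for complete inhibition of growth.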

What was measured:
Experiment in all cases: NCI tumour cell line growth inhibition, 48 h
[1] = test system: MDA-MB-231 breast
[2] = test system: NCI/ADR-RES ovarian
[3] = test system: T-47D breast
[4] = test system: MDA-MB-435

Compound | GI50 [1] [µM] | TGI [1] [µM] | GI50 [2] [µM] | TGI [2] [µM] | GI50 [3] [µM] | TGI [3] [µM] | GI50 [4] [µM] | TGI [4] [µM]
Cc1ccc(S(=O)(=O)n2cc(C(=O)C(=O)Nc3ccncc3)c3ccccc32)cc1 | 5.92 | > 100 | 0.406 | > 34.1 | 4.93 | > 100 |  | 
C/C(=C\c1ccn(-c2ccc(N)cc2)n1)[C@@H]1C[C@@H]2O[C@]2(C)CCC[C@H](C)[C@H](O)[C@@H](C)C(=O)C(C)(C)[C@@H](O)CC(=O)O1 | 0.252 | > 50 | 0.106 |  | 0.028 | > 50 |  | 
COc1cccc2c1c1nc3cc(C)c(C)cc3nc1n2CCN(C)C | 1.87 | 9.52 | 1.22 | 13.3 | 2.76 | 13.6 | 1.83 | 4.14
[N-]=[N+]=CC(=O)OCC(N)C(=O)O (configuration not stated) | 0.763 | > 100 | 3.2 | > 100 | 12.4 | > 100 | 0.457 | > 100
COc1cc2c(cc1OC)[C@@]1(C)C(=O)c3cc4c(cc3[C@H]1N(C)C2=O)OCO4 | 25 | > 100 | 59.6 | > 100 | 37.9 | > 100 | > 100 | > 100
O=C(/C=C\Sc1nccc(C(F)(F)F)n1)c1ccc(Br)cc1 | 19.1 | 44.4 | 20.2 | 52.7 | 11.2 | 38.5 | 26.2 | 78
COc1ccc(-c2nc(-c3nc4cc(C)c(C)cc4[nH]3)cc3c2[nH]c2ccccc23)cc1 | 2.54 | 7.76 | 6.37 | > 100 | 3.09 | 7.92 | 3.97 | > 100
COc1cnc2c(c1)C(=O)c1c-2n(CCCN2CCN(C)CC2)c(=O)c2cc(Cl)ccc12 | 10.7 | 23.2 | 0.979 | 24.5 | 22.8 | 98.7 | 1.53 | 3.14
COc1ccc2c(c1)Cc1c-2c(NN)nc2ccccc12 | 36 | > 100 | 21 | > 100 | 26.5 | > 100 | 3.8 | > 100
COC(=O)Nc1nc2ccc(Oc3ccc(NC(=O)Nc4cccc(Cl)c4)cc3)cc2[nH]1 | 3.31 | 19.3 | 5.17 | > 25 | 1.02 | 5.65 | 0.0755 | 0.315
C/C(=C\c1c[nH]c2ccccc12)[N+](=O)[O-] | 11.4 | 24.5 | 6.23 | 19.7 | 4.27 | 22.2 | 5.56 | 20.1
CO[C@H]1CC[C@@]2(C)C(=CC[C@H]3[C@@H]4C[C@H](O)C[C@@]4(C)CC[C@@H]32)C1 | 4.97 | 24.7 | 4.17 | 39.9 | 8.33 | 31.8 | 1.26 | 6.89
CC[C@H](C)C(=O)O[C@H]1CCC=C2C=C[C@H](C)C(CCC3C[C@@H](O)CC(=O)O3)[C@H]21 (some centres not stated) | 0.455 | 12.5 | 2.3 | > 100 |  | > 100 | 39.3 | > 100
Cc1ccc2sc3c(NCCCNCCO)nc4ccccc4c3c(=O)c2c1 | 1.56 | 3.04 | 1.78 | 3.51 | 1.59 | 3.43 | 1.74 | 3.27
C=C[C@]1(C)C=C2C(=O)[C@@]3(O)OC(=O)[C@@]4(CCCC(C)(C)[C@H]34)[C@@]2(O)CC1 | 1.46 | 3.43 | 2.89 | > 100 | 1.09 | 3.49 | 1.76 | 4.42
CCOC(=O)c1c(Cl)c2c(n1Cc1cc(OC)cc(OC)c1)-c1oncc1CCC2 | 0.812 | > 91.7 | 0.227 | > 61.6 | 0.445 | > 100 |  | 
Cc1ccc(C(=O)NC2CCCCC2)cc1-c1ccc(C(=O)NCC2CC2)cc1 | > 25 | > 25 | 24.6 | > 25 | 9.51 | > 25 | > 25 | > 25
COC1CC2CCC(C)[C@](O)(O2)C(=O)C(=O)N2CCCCC2C(=O)OC(C(C)CC2CCC(O)C(OC)C2)CC(=O)C(C)C=C(C)C(OC(=O)CN(C)C)C(OC)C(=O)C(C)CC(C)/C=C/C=C/C=C\1C (some centres not stated) |  | 20.4 |  |  |  | 25 |  | 19.2
C[C@]12CCC(=O)C=C1CC[C@@H]1[C@@H]2CC[C@]2(C)C(=O)/C(=C/c3cccc(OCCN4CCOCC4)c3)C[C@@H]12 | 11.6 | 42.3 |  |  | 2.9 | > 100 | 4.92 | 21.8
